Assay results as given in paper PMC9736855, “Discovery of 3-Amino-1H-pyrazole-Based Kinase Inhibitors to Illuminate the Understudied PCTAIRE Family” (International Journal of Molecular Sciences, 2022).

Columns and labels:
Experiment in all cases: DSF
Format in all cases: binding
GAK = biological target: T1, GAK (Homo sapiens, UniProt O14976)
T1 construct: purchased in-house DSF panel (SGC Frankfurt)
T1 sequence (O14976 14-351): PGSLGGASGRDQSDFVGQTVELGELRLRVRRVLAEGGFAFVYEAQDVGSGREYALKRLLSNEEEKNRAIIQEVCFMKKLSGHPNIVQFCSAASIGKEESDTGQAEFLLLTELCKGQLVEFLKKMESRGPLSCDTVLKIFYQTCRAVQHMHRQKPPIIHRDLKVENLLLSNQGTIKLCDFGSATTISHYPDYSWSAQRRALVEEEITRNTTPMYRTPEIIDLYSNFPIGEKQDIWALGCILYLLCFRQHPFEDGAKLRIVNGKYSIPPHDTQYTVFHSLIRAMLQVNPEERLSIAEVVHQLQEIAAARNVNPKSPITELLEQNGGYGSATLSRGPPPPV
Protocol: (§1) Recombinant protein kinase domains with a concentration of 2 μM were mixed with a 10 μM compound solution in DMSO, 20 mM HEPES, pH 7.5, and 500 mM NaCl. SYPRO Orange (5000×, Invitrogen) was added as a fluorescence probe (1 µl per mL). Subsequently, temperature-dependent protein unfolding profiles were measured, using the QuantStudio™ 5 realtime PCR machine (Thermo Fisher, Waltham, MA, USA). […] The temperature was raised with a step rate of 3 °C per minute. Data points were analyzed with the internal software (Thermal Shift SoftwareTM Version 1.4, Thermo Fisher) using the Boltzmann equation to determine the inflection point of the transition curve. Differences in melting temperature are given as ΔTm values in °C. Measurements were performed in duplicates.

CHEK2 = biological target: T2, CHEK2 (Homo sapiens, UniProt O96017)
T2 construct: purchased in-house DSF panel (SGC Frankfurt)
T2 sequence (O96017 210-531): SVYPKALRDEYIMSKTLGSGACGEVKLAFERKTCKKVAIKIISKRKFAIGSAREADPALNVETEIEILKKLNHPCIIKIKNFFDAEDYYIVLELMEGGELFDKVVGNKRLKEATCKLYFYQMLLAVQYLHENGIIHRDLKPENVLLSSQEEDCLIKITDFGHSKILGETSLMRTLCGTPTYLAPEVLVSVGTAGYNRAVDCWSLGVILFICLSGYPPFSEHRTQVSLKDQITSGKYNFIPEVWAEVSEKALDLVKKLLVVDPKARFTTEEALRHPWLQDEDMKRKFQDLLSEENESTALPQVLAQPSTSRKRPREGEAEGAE
Protocol: as §1

FES = biological target: T3, FES (Homo sapiens, UniProt P07332)
T3 construct: purchased in-house DSF panel (SGC Frankfurt)
T3 sequence (P07332 whole entry): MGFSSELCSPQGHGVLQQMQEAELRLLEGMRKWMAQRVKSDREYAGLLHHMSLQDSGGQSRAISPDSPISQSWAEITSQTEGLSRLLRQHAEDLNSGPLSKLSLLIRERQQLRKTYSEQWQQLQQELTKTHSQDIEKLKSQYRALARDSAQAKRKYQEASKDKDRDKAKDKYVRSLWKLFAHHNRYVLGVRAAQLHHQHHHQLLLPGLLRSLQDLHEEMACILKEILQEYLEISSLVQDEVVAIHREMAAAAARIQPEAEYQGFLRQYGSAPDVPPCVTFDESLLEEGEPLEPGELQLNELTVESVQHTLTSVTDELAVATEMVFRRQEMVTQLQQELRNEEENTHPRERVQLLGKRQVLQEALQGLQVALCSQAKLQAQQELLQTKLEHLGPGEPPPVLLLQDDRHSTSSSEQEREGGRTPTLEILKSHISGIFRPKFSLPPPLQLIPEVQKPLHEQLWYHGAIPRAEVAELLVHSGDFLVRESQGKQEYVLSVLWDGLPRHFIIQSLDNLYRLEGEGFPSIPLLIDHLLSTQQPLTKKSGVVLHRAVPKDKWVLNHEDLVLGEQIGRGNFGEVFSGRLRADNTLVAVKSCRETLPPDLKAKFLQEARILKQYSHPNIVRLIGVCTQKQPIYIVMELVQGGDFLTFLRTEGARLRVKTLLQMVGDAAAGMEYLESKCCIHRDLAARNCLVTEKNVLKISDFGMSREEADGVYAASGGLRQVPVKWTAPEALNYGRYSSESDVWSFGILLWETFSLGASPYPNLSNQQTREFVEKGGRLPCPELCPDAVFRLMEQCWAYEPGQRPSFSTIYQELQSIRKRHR
Protocol: as §1

PAK4 = biological target: T4, PAK4 (Homo sapiens, UniProt O96013)
T4 construct: purchased in-house DSF panel (SGC Frankfurt)
T4 sequence (O96013 291-591): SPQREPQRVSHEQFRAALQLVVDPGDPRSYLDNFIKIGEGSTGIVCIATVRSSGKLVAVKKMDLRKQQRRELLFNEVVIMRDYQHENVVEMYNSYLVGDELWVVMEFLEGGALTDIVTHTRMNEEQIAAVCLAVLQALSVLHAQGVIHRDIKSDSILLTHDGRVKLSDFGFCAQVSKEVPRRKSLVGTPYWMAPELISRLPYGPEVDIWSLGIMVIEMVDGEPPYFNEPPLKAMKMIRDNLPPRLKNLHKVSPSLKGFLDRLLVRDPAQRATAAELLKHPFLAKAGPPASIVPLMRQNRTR
Protocol: as §1

FGFR1 = biological target: T5, FGFR1 (Homo sapiens, UniProt P11362)
T5 construct: purchased in-house DSF panel (SGC Frankfurt)
T5 sequence (P11362 456-765): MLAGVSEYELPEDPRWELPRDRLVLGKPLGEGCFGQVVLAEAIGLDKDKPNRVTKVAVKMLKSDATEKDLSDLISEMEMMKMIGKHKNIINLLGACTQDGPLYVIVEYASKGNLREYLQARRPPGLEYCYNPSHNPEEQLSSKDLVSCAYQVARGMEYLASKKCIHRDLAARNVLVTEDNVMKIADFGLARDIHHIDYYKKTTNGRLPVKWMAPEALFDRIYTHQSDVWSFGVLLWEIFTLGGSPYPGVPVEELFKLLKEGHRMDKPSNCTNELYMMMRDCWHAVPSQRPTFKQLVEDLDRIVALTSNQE
Protocol: as §1

CASK = biological target: T6, CASK (Homo sapiens, UniProt O14936)
T6 construct: purchased in-house DSF panel (SGC Frankfurt)
T6 sequence (O14936 1-337): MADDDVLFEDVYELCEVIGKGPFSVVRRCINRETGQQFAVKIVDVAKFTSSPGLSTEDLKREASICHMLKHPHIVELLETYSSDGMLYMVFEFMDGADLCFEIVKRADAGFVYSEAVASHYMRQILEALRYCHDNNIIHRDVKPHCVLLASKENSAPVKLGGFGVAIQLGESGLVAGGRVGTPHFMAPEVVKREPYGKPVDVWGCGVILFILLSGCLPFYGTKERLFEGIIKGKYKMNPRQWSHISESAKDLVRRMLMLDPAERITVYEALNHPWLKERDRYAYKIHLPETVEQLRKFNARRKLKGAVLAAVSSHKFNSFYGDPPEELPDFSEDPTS
Protocol: as §1

VRK1 = biological target: T7, VRK1 (Homo sapiens, UniProt Q99986)
T7 construct: purchased in-house DSF panel (SGC Frankfurt)
T7 sequence (Q99986 1-396): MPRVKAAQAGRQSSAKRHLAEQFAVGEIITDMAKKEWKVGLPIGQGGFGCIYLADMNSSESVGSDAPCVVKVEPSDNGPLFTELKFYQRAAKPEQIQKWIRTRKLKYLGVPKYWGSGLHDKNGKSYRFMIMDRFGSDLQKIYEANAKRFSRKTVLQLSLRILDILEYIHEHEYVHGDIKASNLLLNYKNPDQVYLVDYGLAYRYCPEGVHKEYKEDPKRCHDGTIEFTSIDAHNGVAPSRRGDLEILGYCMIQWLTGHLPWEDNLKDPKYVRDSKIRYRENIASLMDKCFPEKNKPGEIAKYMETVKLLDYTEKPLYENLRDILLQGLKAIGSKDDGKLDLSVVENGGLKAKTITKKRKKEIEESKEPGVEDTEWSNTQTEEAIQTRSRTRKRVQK
Protocol: as §1

PHKG2 = biological target: T8, PHKG2 (Homo sapiens, UniProt P15735)
T8 construct: purchased in-house DSF panel (SGC Frankfurt)
T8 sequence (P15735 6-293): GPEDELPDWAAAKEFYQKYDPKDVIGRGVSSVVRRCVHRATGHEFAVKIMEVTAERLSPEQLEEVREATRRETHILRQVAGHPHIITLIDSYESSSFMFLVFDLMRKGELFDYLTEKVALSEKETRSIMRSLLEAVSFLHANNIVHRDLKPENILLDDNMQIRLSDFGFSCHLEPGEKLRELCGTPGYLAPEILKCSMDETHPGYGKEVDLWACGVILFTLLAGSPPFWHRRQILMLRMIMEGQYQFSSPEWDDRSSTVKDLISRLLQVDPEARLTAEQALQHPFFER
Protocol: as §1

PDK4 = biological target: T9, PDK4 (Homo sapiens, UniProt Q16654)
T9 construct: purchased in-house DSF panel (SGC Frankfurt)
T9 sequence (Q16654 whole entry): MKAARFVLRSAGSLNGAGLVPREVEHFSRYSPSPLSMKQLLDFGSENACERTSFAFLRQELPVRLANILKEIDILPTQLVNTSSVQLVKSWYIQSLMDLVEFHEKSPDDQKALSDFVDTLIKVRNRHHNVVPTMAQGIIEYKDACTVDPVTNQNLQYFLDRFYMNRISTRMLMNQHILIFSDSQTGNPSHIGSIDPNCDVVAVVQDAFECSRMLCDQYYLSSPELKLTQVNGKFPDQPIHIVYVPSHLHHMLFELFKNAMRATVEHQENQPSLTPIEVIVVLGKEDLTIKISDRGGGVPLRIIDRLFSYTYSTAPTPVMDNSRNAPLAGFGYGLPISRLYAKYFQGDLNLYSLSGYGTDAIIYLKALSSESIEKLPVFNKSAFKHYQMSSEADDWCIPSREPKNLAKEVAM
Protocol: as §1

PKMYT1 = biological target: T10, PKMYT1 (Homo sapiens, UniProt Q99640)
T10 construct: purchased in-house DSF panel (SGC Frankfurt)
T10 sequence (Q99640 75-362): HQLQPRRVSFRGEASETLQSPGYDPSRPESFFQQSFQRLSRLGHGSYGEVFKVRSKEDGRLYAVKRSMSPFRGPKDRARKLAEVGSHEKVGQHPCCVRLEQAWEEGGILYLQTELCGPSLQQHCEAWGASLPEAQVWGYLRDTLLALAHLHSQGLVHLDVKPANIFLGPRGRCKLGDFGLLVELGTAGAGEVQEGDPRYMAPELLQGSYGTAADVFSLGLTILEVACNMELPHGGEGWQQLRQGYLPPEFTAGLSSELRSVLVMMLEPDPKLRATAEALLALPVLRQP
Protocol: as §1

ABL1 = biological target: T11, ABL1 (Homo sapiens, UniProt P00519)
T11 construct: purchased in-house DSF panel (SGC Frankfurt)
T11 sequence (P00519 229-500): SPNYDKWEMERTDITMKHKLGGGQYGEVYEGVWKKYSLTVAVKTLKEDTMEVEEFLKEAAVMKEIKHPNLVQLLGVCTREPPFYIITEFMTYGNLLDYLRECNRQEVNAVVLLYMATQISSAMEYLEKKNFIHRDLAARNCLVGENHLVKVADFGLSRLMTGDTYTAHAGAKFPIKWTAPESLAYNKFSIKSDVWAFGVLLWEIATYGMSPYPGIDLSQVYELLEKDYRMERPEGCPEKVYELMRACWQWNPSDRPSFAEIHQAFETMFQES
Protocol: as §1

CAMK1D = biological target: T12, CAMK1D (Homo sapiens, UniProt Q8IU85)
T12 construct: purchased in-house DSF panel (SGC Frankfurt)
T12 sequence (Q8IU85 23-279): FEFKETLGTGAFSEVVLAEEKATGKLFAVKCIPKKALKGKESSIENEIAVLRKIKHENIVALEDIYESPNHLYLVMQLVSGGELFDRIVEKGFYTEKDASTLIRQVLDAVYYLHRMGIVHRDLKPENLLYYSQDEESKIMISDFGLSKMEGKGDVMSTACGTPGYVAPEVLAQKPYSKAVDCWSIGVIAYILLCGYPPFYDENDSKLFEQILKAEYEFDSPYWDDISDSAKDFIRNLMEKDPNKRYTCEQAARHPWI
Protocol: as §1

SMILES: N#CCc1ccc(Nc2nccc(Nc3cc(C4CC4)[nH]n3)n2)cc1 [compound 1, reference compound]
- ΔTm GAK (GAK): 8.0 °C
- ΔTm CHEK2 (CHEK2): 8.6 °C
- ΔTm FES (FES): 4.5 °C
- ΔTm PAK4 (PAK4): 7.7 °C
- ΔTm FGFR1 (FGFR1): 4.5 °C
- ΔTm CASK (CASK): 2.0 °C
- ΔTm VRK1 (VRK1): 5.9 °C
- ΔTm PHKG2 (PHKG2): 8.8 °C
- ΔTm PDK4 (PDK4): 1.2 °C
- ΔTm PKMYT1 (PKMYT1): 1.0 °C
- ΔTm ABL1 (ABL1): 8.7 °C
- ΔTm CAMK1D (CAMK1D): 5.4 °C

SMILES: CC(C)(C)OC(=O)Nc1ccc(CNc2nccc(Nc3cc(C(=O)OC(C)(C)C)[nH]n3)n2)cc1 [43d, tert-butyl 3-((2-((4-((tert-butoxycarbonyl)amino)benzyl)amino)pyrimidin-4-yl)amino)-1H-pyrazole-5-carboxylate]
- ΔTm GAK (GAK): -4.1 °C
- ΔTm CHEK2 (CHEK2): 1.3 °C
- ΔTm FES (FES): 1.1 °C
- ΔTm PAK4 (PAK4): -0.9 °C
- ΔTm FGFR1 (FGFR1): 0.6 °C
- ΔTm CASK (CASK): 0.4 °C
- ΔTm VRK1 (VRK1): 0.9 °C
- ΔTm PHKG2 (PHKG2): 0.5 °C
- ΔTm PKMYT1 (PKMYT1): -2.0 °C
- ΔTm ABL1 (ABL1): 1.6 °C
- ΔTm CAMK1D (CAMK1D): -2.9 °C

SMILES: CC(C)OC(=O)c1cc(Nc2ccnc(NCc3ccc(NC(=O)OC(C)(C)C)cc3)n2)n[nH]1 [42d, isopropyl 3-((2-((4-((tert-butoxycarbonyl)amino)benzyl)amino)pyrimidin-4-yl)amino)-1H-pyrazole-5-carboxylate]
- ΔTm GAK (GAK): -0.9 °C
- ΔTm CHEK2 (CHEK2): 0.6 °C
- ΔTm FES (FES): 0.1 °C
- ΔTm PAK4 (PAK4): -0.2 °C
- ΔTm FGFR1 (FGFR1): 0.4 °C
- ΔTm CASK (CASK): 0.4 °C
- ΔTm VRK1 (VRK1): 0.5 °C
- ΔTm PHKG2 (PHKG2): -0.2 °C
- ΔTm PKMYT1 (PKMYT1): -3.2 °C
- ΔTm ABL1 (ABL1): 1.0 °C
- ΔTm CAMK1D (CAMK1D): -2.4 °C

SMILES: COC(=O)c1cc(Nc2ccnc(NCCOCCNC(=O)OC(C)(C)C)n2)[nH]n1 [21d, methyl 5-((2-((2-(2-((tert-butoxycarbonyl)amino)ethoxy)ethyl)amino)pyrimidin-4-yl)amino)-1H-pyrazole-3-carboxylate]
- ΔTm GAK (GAK): 2.1 °C
- ΔTm CHEK2 (CHEK2): 2.5 °C
- ΔTm FES (FES): 1.5 °C
- ΔTm PAK4 (PAK4): 1.0 °C
- ΔTm FGFR1 (FGFR1): 0.5 °C
- ΔTm CASK (CASK): 0.4 °C
- ΔTm VRK1 (VRK1): 1.0 °C
- ΔTm PHKG2 (PHKG2): 0.5 °C
- ΔTm PDK4 (PDK4): 1.8 °C
- ΔTm PKMYT1 (PKMYT1): 1.0 °C
- ΔTm ABL1 (ABL1): 1.2 °C
- ΔTm CAMK1D (CAMK1D): 1.4 °C

SMILES: COC(=O)c1cc(Nc2ccnc(NCc3ccc(NC(=O)OC(C)(C)C)cc3)n2)[nH]n1 [21i, methyl 5-((2-((4-((tert-butoxycarbonyl)amino)benzyl)amino)pyrimidin-4-yl)amino)-1H-pyrazole-3-carboxylate]
- ΔTm GAK (GAK): 1.3 °C
- ΔTm CHEK2 (CHEK2): 0.6 °C
- ΔTm FES (FES): 0.0 °C
- ΔTm PAK4 (PAK4): 0.2 °C
- ΔTm FGFR1 (FGFR1): 0.0 °C
- ΔTm CASK (CASK): 0.2 °C
- ΔTm VRK1 (VRK1): 1.1 °C
- ΔTm PHKG2 (PHKG2): -0.3 °C
- ΔTm PDK4 (PDK4): 0.9 °C
- ΔTm PKMYT1 (PKMYT1): 0.2 °C
- ΔTm ABL1 (ABL1): 0.7 °C
- ΔTm CAMK1D (CAMK1D): -0.5 °C
